For series [1], the system named is OV90. The series is described as follows: EC17 dependent anti-tumor activity, OV90 xenograft (Example 26). Particulars: 500 nmoles/kg once per week, 5 million CAR-T. The format is in vivo, NSG mice. The source says: Immunodeficient NSG mice (Jackson Laboratory) were used to show the efficacy of CAR T cell anti-tumor activity with a single dose of EC17 per week. Two folate receptor expressing cancer cell lines were used to establish subcutaneous solid tumor xenografts: MDA-MB-231 has high folate receptor expression, while OV90 has low folate receptor expression. When tumor volume of around 100-250 mm^3 was reached, mice were divided into two groups. Mice in the “EC17 500 nmol/kg” group (nmol/kg is equivalent to nmoles/kg as used in this patent application for the bridge) were injected with 500 nmoles/kg of body weight of EC17, while mice in the “no EC17” group were not injected with EC17. Four hours later, mice in both groups were administered 5 million anti-FITC CAR-T cells. After initial administration of EC17 and CAR-T cells, only mice in the “EC17 500 nmol/kg” group were injected (i.v.) with 500 nmoles/kg of EC17 once per week. Anti-tumor efficacy was monitored by tumor volume.

In series [2] the test system is HOS-FRα. The series is described as follows: EC17-controlled anti-FITC CAR T-cell therapy in osteosarcoma model (Example 47). The format is in vivo, NSG mice. The source says: HOS-FRα cells were implanted subcutaneously with 5×10^5 per animal in 6 animals.
[…] One animal in the EC17-treated group received two more doses of EC17 at 50 and 100 nmol/kg on Days 40 and 42. All EC17 doses were given towards the end of the day (˜3-4 PM) to allow cytokine release syndrome (CRS) to develop overnight. Sodium fluorescein rescue was done as needed at 0.6 μmol/kg. Only the last EC17-dosed animal received sodium fluorescein on day 47.

Series [3] concerns MDA-MB-231. It counts as in vivo. Particulars: for mice died (or euthanized due to sCRS): Week 2. The method, then: To evaluate whether pre-painting tumors with EC17 can reduce the therapy-related toxicity (e.g. sCRS), NSG mice were implanted with MDA-MB-231. Since larger tumor burden is correlated with more severe CRS, the treatment was started when tumor size reached […]. Mice were divided into two groups and predosed with 500 nmol/kg EC17 at different time points before CAR-T administration (FIGS. 26A and 26B). Group #1 was pre-dosed 4 hours before the administration of 8 million CAR-T cells, while group #2 was pre-dosed 24 hours before the administration of 8 million CAR-T cells. 500 nmol/kg EC17 was then i.v. dosed once per week (at days 1, 8, 15 etc.) post CAR-T administration (FIGS. 26D and 26E). […] No difference in anti-tumor activity was found in these two groups, and all surviving mice became tumor free eventually. Thus, toxicity was less in mice with 24 hour pre-painting than in mice with 4 hour pre-painting with EC17.

Where two headings read alike, the source gives them in different places.

`Nc1nc2ncc(CNc3ccc(C(=O)NC(CCC(=O)NCCNC(=S)Nc4ccc(-c5c6ccc(=O)cc-6oc6cc(O)ccc56)c(C(=O)O)c4)C(=O)O)cc3)nc2c(=O)[nH]1` (stereo not shown) [EC17, FITC-Folate]: the anti-tumor activity entry in series [1] is “EC17 dependent anti-tumor activity”. For the same molecule, the tumor volume entry in series [2] (500 nmol/kg SIW, 10.5 million CAR T-cells) was “started to shrink on Days 28 and 33”. For the same molecule, the CRS result in series [2] (once tumors reached >200 mm^3) was “CRS was severe”. The “mice survived over 5 weeks” value in series [3] (4-hour pre-painting) turned out to be 17%; in series [3] (NSG, mouse, in vivo) it was 83%. For the same molecule, the “mice died (or euthanized due to sCRS)” value worked out at 33% in series [3] (4-hour pre-painting) and 17% in series [3] (24-hour pre-painting). The mice died turned out to be 33% in series [3] (4-hour pre-painting, Week 3) and 17% in series [3] (4-hour pre-painting, week 4). For the same molecule, in series [3] (both pre-painting groups), the “tumor outcome of surviving mice” value is on record as “tumor free”.

The values are drawn from patent US11759480B2, “Compositions and methods for CAR T cell therapy” (ENDOCYTE, INC., priority 2017, dated 2023).
